“And” between values parts separate entries of the source, which are not always exact repeats. Identical values can stand only once.
Tests used:
Ed 45 WT shoots = test: Survival of wild-type shoots on medium with G-418; type: in vivo, Linum usitatissimum; details: of four shoots
[1] = system: Flanders 301 transgenic shoots (JH5 vector); test: Survival of transgenic shoots on medium with G-418; type: in vivo, Linum usitatissimum; details: of four shoots
Text: (§1) Preferably, testing the two antibiotic system in the transformation experiments is done using kanamycin for the initial selection and G-418 for the second and third rounds of selection (FIG. 1).

[2] = system: Ed 45 288 transgenic shoots (JH5 vector); test: Survival of transgenic shoots on medium with G-418; type: in vivo, Linum usitatissimum; details: of four shoots
Text: as §1

[3] = system: McGregor 324 transgenic shoots (JH5 vector); test: Survival of transgenic shoots on medium with G-418; type: in vivo, Linum usitatissimum; details: of four shoots
Text: as §1

[4] = system: hypocotyl segments used for the Agrobacterium tumefaciens inoculation; test: Sensitivity of hypocotyl segments to selection antibiotics; type: in vivo, flax; details: selective antibiotic for the initial transformation
Text: as §1

McGregor WT shoots = test: Survival of wild-type shoots on medium with G-418; type: in vivo, Linum usitatissimum; details: of four shoots
Text: as §1

Flanders WT shoots = test: Survival of wild-type shoots on medium with G-418; type: in vivo, Linum usitatissimum; details: of four shoots
Text: as §1

[5] = system: wild-type flax regenerated shoots; test: Tolerance of regenerated shoots to G-418; type: in vivo; details: tests using regenerated shoots
Text: as §1

CN[C@@H]1[C@@H](O)[C@@H](O[C@@H]2[C@@H](O)[C@H](O[C@H]3O[C@H]([C@@H](C)O)[C@@H](O)[C@H](O)[C@H]3N)[C@@H](N)C[C@H]2N)OC[C@]1(C)O [G-418]
1 and 2: Number of shoots surviving 24 days on medium with G-418 (Ed 45 WT shoots; G-418 20 mg/l) | Number of shoots surviving 24 days on medium with G-418 (Ed 45 WT shoots; G-418 30 mg/l) | Number of shoots surviving 24 days on medium with G-418 ([1]; G-418 200 mg/l)
2: Number of shoots surviving 24 days on medium with G-418 (McGregor WT shoots; G-418 30 mg/l)
no natural tolerance: Natural tolerance of wild-type flax [5]
4 and 3: Number of shoots surviving 24 days on medium with G-418 ([1]; G-418 100 mg/l) | Number of shoots surviving 24 days on medium with G-418 ([2]; G-418 50 mg/l) | Number of shoots surviving 24 days on medium with G-418 ([3]; G-418 150 mg/l) | Number of shoots surviving 24 days on medium with G-418 (McGregor WT shoots; G-418 20 mg/l)
4: Number of shoots surviving 24 days on medium with G-418 (Ed 45 WT shoots; G-418 10 mg/l) | Number of shoots surviving 24 days on medium with G-418 ([1]; G-418 10 mg/l) | Number of shoots surviving 24 days on medium with G-418 ([1]; G-418 20 mg/l) | Number of shoots surviving 24 days on medium with G-418 ([1]; G-418 40 mg/l) | Number of shoots surviving 24 days on medium with G-418 ([1]; G-418 50 mg/l) | Number of shoots surviving 24 days on medium with G-418 ([1]; G-418 70 mg/l) | Number of shoots surviving 24 days on medium with G-418 ([2]; G-418 10 mg/l) | Number of shoots surviving 24 days on medium with G-418 ([2]; G-418 20 mg/l) | Number of shoots surviving 24 days on medium with G-418 ([2]; G-418 30 mg/l) | Number of shoots surviving 24 days on medium with G-418 ([2]; G-418 40 mg/l) | Number of shoots surviving 24 days on medium with G-418 ([2]; G-418 70 mg/l) | Number of shoots surviving 24 days on medium with G-418 ([3]; G-418 10 mg/l) | Number of shoots surviving 24 days on medium with G-418 ([3]; G-418 20 mg/l) | Number of shoots surviving 24 days on medium with G-418 ([3]; G-418 30 mg/l) | Number of shoots surviving 24 days on medium with G-418 ([3]; G-418 40 mg/l) | Number of shoots surviving 24 days on medium with G-418 ([3]; G-418 50 mg/l) | Number of shoots surviving 24 days on medium with G-418 ([3]; G-418 70 mg/l) | Number of shoots surviving 24 days on medium with G-418 ([3]; G-418 100 mg/l) | Number of shoots surviving 24 days on medium with G-418 (McGregor WT shoots; G-418 10 mg/l) | Number of shoots surviving 24 days on medium with G-418 (Flanders WT shoots; G-418 10 mg/l)
0: Number of shoots surviving 24 days on medium with G-418 (Ed 45 WT shoots; G-418 40 mg/l) | Number of shoots surviving 24 days on medium with G-418 (Ed 45 WT shoots; G-418 50 mg/l) | Number of shoots surviving 24 days on medium with G-418 (Ed 45 WT shoots; G-418 70 mg/l) | Number of shoots surviving 24 days on medium with G-418 (Ed 45 WT shoots; G-418 100 mg/l) | Number of shoots surviving 24 days on medium with G-418 (Ed 45 WT shoots; G-418 150 mg/l) | Number of shoots surviving 24 days on medium with G-418 (Ed 45 WT shoots; G-418 200 mg/l) | Number of shoots surviving 24 days on medium with G-418 (McGregor WT shoots; G-418 50 mg/l) | Number of shoots surviving 24 days on medium with G-418 (McGregor WT shoots; G-418 70 mg/l) | Number of shoots surviving 24 days on medium with G-418 (McGregor WT shoots; G-418 100 mg/l) | Number of shoots surviving 24 days on medium with G-418 (McGregor WT shoots; G-418 150 mg/l) | Number of shoots surviving 24 days on medium with G-418 (McGregor WT shoots; G-418 200 mg/l) | Number of shoots surviving 24 days on medium with G-418 (Flanders WT shoots; G-418 50 mg/l) | Number of shoots surviving 24 days on medium with G-418 (Flanders WT shoots; G-418 70 mg/l) | Number of shoots surviving 24 days on medium with G-418 (Flanders WT shoots; G-418 100 mg/l) | Number of shoots surviving 24 days on medium with G-418 (Flanders WT shoots; G-418 150 mg/l) | Number of shoots surviving 24 days on medium with G-418 (Flanders WT shoots; G-418 200 mg/l)
3 and 4: Number of shoots surviving 24 days on medium with G-418 ([1]; G-418 30 mg/l) | Number of shoots surviving 24 days on medium with G-418 ([2]; G-418 100 mg/l) | Number of shoots surviving 24 days on medium with G-418 (Flanders WT shoots; G-418 20 mg/l)
no callus was produced: Callus production with the antibiotic as selective agent [4]
2 and 4: Number of shoots surviving 24 days on medium with G-418 ([1]; G-418 150 mg/l)

— patent US20030074686A1, “Novel method for the generation and selection of transgenic linseed/flax plants” (priority 1999, published 2003)
